The values below come from US20150038438A1, “ANTIBACTERIAL COMPOUNDS AND METHODS FOR USE” (PTC THERAPEUTICS, INC., priority 2011, published 2015).

The MIC is the lowest concentration that inhibits growth of the organism.

Holding throughout (assay): Antibacterial activity, microbroth dilution method (MIC)
For orientation: Dilution methods test growth across graded concentrations, often in twofold steps.

For assay [1], the system named is super sensitive Gram-negative Escherichia coli (E. coli) BAS849. The class given is cell-based. Particulars: Escherichia coli; super sensitive Gram-negative E. coli BAS849; microbroth dilution; read-out: MIC, E. coli BAS849. The essentials:
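Potency is reported as minimum inhibitory concentration in μg/mL, determined by broth microdilution as the lowest level of compound that stops growth visible to the eye.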

In assay [2] the test system is Gram-positive Staphylococcus aureus (S. aureus) 29213. The class given is cell-based. The note with it: Staphylococcus aureus, Gram-positive S. aureus 29213. The essentials: (§1)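 Microbroth dilution was used. MIC, in μg/mL, is the lowest drug concentration preventing macroscopically visible growth under the test conditions.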
Assay [3] has as its system control Gram-negative E. coli 25922 strain. The assay is classed as cell-based, Escherichia coli. The note with it: Escherichia coli. An outline of the steps: as §1

For `CCCCCCNCc1cc2cc3c(cc2n1C)CCCc1c-3[nH]c(=O)c(C(=O)O)c1O.Cl` [Cpd 138, 10-((hexylamino)methyl)-4-hydroxy-9-methyl-2-oxo-1,2,5,6,7,9-hexahydropyrido[3′,2′:6,7]cyclohepta[1,2-f]indole-3-carboxylic acid hydrochloride], the minimum inhibitory concentration (MIC) was below 1 µg/mL in assay [1], 1 to 3.5 µg/mL in assay [2] and 1 to 3.5 µg/mL in assay [3].

`CCCCCCCNCc1cc2cc3c(cc2n1C)CCCc1c-3[nH]c(=O)c(C(=O)O)c1O.Cl` [Cpd 139, 10-((heptylamino)methyl)-4-hydroxy-9-methyl-2-oxo-1,2,5,6,7,9-hexahydropyrido[3′,2′:6,7]cyclohepta[1,2-f]indole-3-carboxylic acid hydrochloride]: the MIC in assay [1] was below 1 µg/mL; in assay [2], 1 to 3.5 µg/mL; in assay [3], 12.5 to 150 µg/mL.

On to `CCCCCCCCNCc1cc2cc3c(cc2n1C)CCCc1c-3[nH]c(=O)c(C(=O)O)c1O.Cl` [Cpd 140, 4-hydroxy-9-methyl-10-((octylamino)methyl)-2-oxo-1,2,5,6,7,9-hexahydropyrido[3′,2′:6,7]cyclohepta[1,2-f]indole-3-carboxylic acid hydrochloride], for which the MIC was below 1 µg/mL in assay [1], 1 to 3.5 µg/mL in assay [2] and 12.5 to 150 µg/mL in assay [3].

`CCCCCCCCCNCc1cc2cc3c(cc2n1C)CCCc1c-3[nH]c(=O)c(C(=O)O)c1O.Cl` [Cpd 141, 4-hydroxy-9-methyl-10-((nonylamino)methyl)-2-oxo-1,2,5,6,7,9-hexahydropyrido[3′,2′:6,7]cyclohepta[1,2-f]indole-3-carboxylic acid hydrochloride]: the results for the MIC in assay [1], in assay [2] and in assay [3] were 1 to 3.5 µg/mL, 3.5 to 12.5 µg/mL and 12.5 to 150 µg/mL, respectively.

Take `CN(C)CCNCc1cc2cc3c(cc2n1C)CCCc1c-3[nH]c(=O)c(C(=O)O)c1O.Cl.Cl` [Cpd 142, 10-(((2-(dimethylamino)ethyl)amino)methyl)-4-hydroxy-9-methyl-2-oxo-1,2,5,6,7,9-hexahydropyrido[3′,2′:6,7]cyclohepta[1,2-f]indole-3-carboxylic acid dihydrochloride]: the minimal inhibitory concentration (MIC) was below 1 µg/mL in assay [1], 12.5 to 150 µg/mL in assay [2] and 3.5 to 12.5 µg/mL in assay [3].

Turning to `CNCCNCc1cc2cc3c(cc2n1C)CCCc1c-3[nH]c(=O)c(C(=O)O)c1O.Cl.Cl` [Cpd 143, 4-hydroxy-9-methyl-10-(((2-(methylamino)ethyl)amino)methyl)-2-oxo-1,2,5,6,7,9-hexahydropyrido[3′,2′:6,7]cyclohepta[1,2-f]indole-3-carboxylic acid dihydrochloride], the MIC in assay [1] fell in the range of 3.5 to 12.5 µg/mL; in assay [2], 12.5 to 150 µg/mL; in assay [3], 12.5 to 150 µg/mL.

On to `Cl.Cl.Cn1c(CNCCN)cc2cc3c(cc21)CCCc1c-3[nH]c(=O)c(C(=O)O)c1O` [Cpd 144, 10-(((2-aminoethyl)amino)methyl)-4-hydroxy-9-methyl-2-oxo-1,2,5,6,7,9-hexahydropyrido[3′,2′:6,7]cyclohepta[1,2-f]indole-3-carboxylic acid dihydrochloride], for which the minimum inhibitory concentration (MIC) in assay [1] was 3.5 to 12.5 µg/mL; in assay [2], 12.5 to 150 µg/mL; in assay [3], 12.5 to 150 µg/mL.

Consider `CN(C)CCN(C)Cc1cc2cc3c(cc2n1C)CCCc1c-3[nH]c(=O)c(C(=O)O)c1O.Cl.Cl` [Cpd 145, 10-(((2-(dimethylamino)ethyl)(methyl)amino)methyl)-4-hydroxy-9-methyl-2-oxo-1,2,5,6,7,9-hexahydropyrido[3′,2′:6,7]cyclohepta[1,2-f]indole-3-carboxylic acid dihydrochloride], for which the minimal inhibitory concentration (MIC) in assay [1] is below 1 µg/mL; in assay [2], 12.5 to 150 µg/mL; in assay [3], 12.5 to 150 µg/mL.

In the case of `CCC(C)NCc1cc2cc3c(cc2n1C)CCCc1c-3[nH]c(=O)c(C(=O)O)c1O.Cl` (stereo not drawn) [Cpd 146, 10-((sec-butylamino)methyl)-4-hydroxy-9-methyl-2-oxo-1,2,5,6,7,9-hexahydropyrido[3′,2′:6,7]cyclohepta[1,2-f]indole-3-carboxylic acid hydrochloride], the MIC in assay [1] was below 1 µg/mL; in assay [2], 3.5 to 12.5 µg/mL; in assay [3], below 1 µg/mL.

As for `Cl.Cn1c(CNCCO)cc2cc3c(cc21)CCCc1c-3[nH]c(=O)c(C(=O)O)c1O` [Cpd 147, 4-hydroxy-10-(((2-hydroxyethyl)amino)methyl)-9-methyl-2-oxo-1,2,5,6,7,9-hexahydropyrido[3′,2′:6,7]cyclohepta[1,2-f]indole-3-carboxylic acid hydrochloride], the minimum inhibitory concentration (MIC) in assay [1] is below 1 µg/mL; in assay [2], 12.5 to 150 µg/mL; in assay [3], 3.5 to 12.5 µg/mL.

For `COCCNCc1cc2cc3c(cc2n1C)CCCc1c-3[nH]c(=O)c(C(=O)O)c1O.Cl` [Cpd 148, 4-hydroxy-10-(((2-methoxyethyl)amino)methyl)-9-methyl-2-oxo-1,2,5,6,7,9-hexahydropyrido[3′,2′:6,7]cyclohepta[1,2-f]indole-3-carboxylic acid hydrochloride], the minimum inhibitory concentration (MIC) was below 1 µg/mL in assay [1], 12.5 to 150 µg/mL in assay [2] and below 1 µg/mL in assay [3].

Regarding `CN(CCO)Cc1cc2cc3c(cc2n1C)CCCc1c-3[nH]c(=O)c(C(=O)O)c1O.Cl` [Cpd 149, 4-hydroxy-10-(((2-hydroxyethyl)(methyl)amino)methyl)-9-methyl-2-oxo-1,2,5,6,7,9-hexahydropyrido[3′,2′:6,7]cyclohepta[1,2-f]indole-3-carboxylic acid hydrochloride], the figures for the MIC in assay [1], in assay [2] and in assay [3] were below 1 µg/mL, 3.5 to 12.5 µg/mL and 3.5 to 12.5 µg/mL, respectively.

Turning to `COCC(C)NCc1cc2cc3c(cc2n1C)CCCc1c-3[nH]c(=O)c(C(=O)O)c1O.Cl` (stereo not drawn) [Cpd 150, 4-hydroxy-10-(((1-methoxypropan-2-yl)amino)methyl)-9-methyl-2-oxo-1,2,5,6,7,9-hexahydropyrido[3′,2′:6,7]cyclohepta[1,2-f]indole-3-carboxylic acid hydrochloride], the MIC was below 1 µg/mL in assay [1], 3.5 to 12.5 µg/mL in assay [2] and 1 to 3.5 µg/mL in assay [3].

Consider `CC(CO)NCc1cc2cc3c(cc2n1C)CCCc1c-3[nH]c(=O)c(C(=O)O)c1O.Cl` (stereo not drawn) [Cpd 151, 4-hydroxy-10-(((1-hydroxypropan-2-yl)amino)methyl)-9-methyl-2-oxo-1,2,5,6,7,9-hexahydropyrido[3′,2′:6,7]cyclohepta[1,2-f]indole-3-carboxylic acid hydrochloride], for which the MIC in assay [1] was 3.5 to 12.5 µg/mL; in assay [2], 12.5 to 150 µg/mL; in assay [3], 1 to 3.5 µg/mL.

Regarding `Cl.Cl.Cn1c(CNCCN2CCCC2)cc2cc3c(cc21)CCCc1c-3[nH]c(=O)c(C(=O)O)c1O` [Cpd 152, 4-hydroxy-9-methyl-2-oxo-10-(((2-(pyrrolidin-1-yl)ethyl)amino)methyl)-1,2,5,6,7,9-hexahydropyrido[3′,2′:6,7]cyclohepta[1,2-f]indole-3-carboxylic acid dihydrochloride], the minimum inhibitory concentration (MIC) is below 1 µg/mL in assay [1], 12.5 to 150 µg/mL in assay [2] and 3.5 to 12.5 µg/mL in assay [3].

Take `C=CCNCc1cc2cc3c(cc2n1C)CCCc1c-3[nH]c(=O)c(C(=O)O)c1O.Cl` [Cpd 153, 10-((allylamino)methyl)-4-hydroxy-9-methyl-2-oxo-1,2,5,6,7,9-hexahydropyrido[3′,2′:6,7]cyclohepta[1,2-f]indole-3-carboxylic acid hydrochloride]: the MIC was below 1 µg/mL in assay [1], 3.5 to 12.5 µg/mL in assay [2] and below 1 µg/mL in assay [3].

Consider `CC(C)CNCc1cc2cc3c(cc2n1C)CCCc1c-3[nH]c(=O)c(C(=O)O)c1O.Cl` [Cpd 154, 4-hydroxy-10-((isobutylamino)methyl)-9-methyl-2-oxo-1,2,5,6,7,9-hexahydropyrido[3′,2′:6,7]cyclohepta[1,2-f]indole-3-carboxylic acid hydrochloride], for which the MIC is below 1 µg/mL in assay [1], 3.5 to 12.5 µg/mL in assay [2] and below 1 µg/mL in assay [3].

Consider `Cl.Cn1c(CNCC(C)(C)C)cc2cc3c(cc21)CCCc1c-3[nH]c(=O)c(C(=O)O)c1O` [Cpd 155, 4-hydroxy-9-methyl-10-((neopentylamino)methyl)-2-oxo-1,2,5,6,7,9-hexahydropyrido[3′,2′:6,7]cyclohepta[1,2-f]indole-3-carboxylic acid hydrochloride], for which the MIC in assay [1] is below 1 µg/mL; in assay [2], 3.5 to 12.5 µg/mL; in assay [3], 1 to 3.5 µg/mL.

`CN1CCCN(Cc2cc3cc4c(cc3n2C)CCCc2c-4[nH]c(=O)c(C(=O)O)c2O)CC1.Cl.Cl` [Cpd 156, 4-hydroxy-9-methyl-10-((4-methyl-1,4-diazepan-1-yl)methyl)-2-oxo-1,2,5,6,7,9-hexahydropyrido[3′,2′:6,7]cyclohepta[1,2-f]indole-3-carboxylic acid dihydrochloride]: the figures for the minimum inhibitory concentration (MIC) in assay [1], in assay [2] and in assay [3] were below 1 µg/mL, 12.5 to 150 µg/mL and 3.5 to 12.5 µg/mL, respectively.

`CN1CCC(NCc2cc3cc4c(cc3n2C)CCCc2c-4[nH]c(=O)c(C(=O)O)c2O)CC1.Cl.Cl` [Cpd 157, 4-hydroxy-9-methyl-10-(((1-methylpiperidin-4-yl)amino)methyl)-2-oxo-1,2,5,6,7,9-hexahydropyrido[3′,2′:6,7]cyclohepta[1,2-f]indole-3-carboxylic acid dihydrochloride]: the results for the MIC in assay [1], in assay [2] and in assay [3] were below 1 µg/mL, 12.5 to 150 µg/mL and 1 to 3.5 µg/mL, respectively.

Regarding `COC1CCN(Cc2cc3cc4c(cc3n2C)CCCc2c-4[nH]c(=O)c(C(=O)O)c2O)C1.Cl` (stereo not drawn) [Cpd 158, 4-hydroxy-10-((3-methoxypyrrolidin-1-yl)methyl)-9-methyl-2-oxo-1,2,5,6,7,9-hexahydropyrido[3′,2′:6,7]cyclohepta[1,2-f]indole-3-carboxylic acid hydrochloride], the minimum inhibitory concentration (MIC) in assay [1] was below 1 µg/mL; in assay [2] it was 3.5 to 12.5 µg/mL; in assay [3], 1 to 3.5 µg/mL.
